Test results as given in ChEMBL document CHEMBL5291721, “A preclinical secondary pharmacology resource illuminates target-adverse drug reaction associations of marketed drugs” (Nat Commun, 2023).

Key:
D(3) dopamine receptor = D(3) dopamine receptor (Homo sapiens, UniProt P35462)
Adenosine receptor A3 = target: T1, Adenosine receptor A3 (Homo sapiens, UniProt P0DMS8)
T1 sequence (P0DMS8 whole entry): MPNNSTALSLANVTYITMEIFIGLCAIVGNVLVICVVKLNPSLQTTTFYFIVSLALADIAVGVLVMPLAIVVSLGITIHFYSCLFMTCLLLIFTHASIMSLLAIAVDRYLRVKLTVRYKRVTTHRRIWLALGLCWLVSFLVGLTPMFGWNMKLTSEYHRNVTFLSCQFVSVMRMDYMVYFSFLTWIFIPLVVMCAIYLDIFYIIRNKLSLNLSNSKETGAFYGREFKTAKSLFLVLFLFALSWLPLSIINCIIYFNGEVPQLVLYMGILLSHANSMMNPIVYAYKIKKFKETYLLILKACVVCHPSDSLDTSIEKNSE

[1] = target: T2, Alpha-1A adrenergic receptor (Homo sapiens, UniProt P35348); assay type: functional, cell-based
T2 sequence (P35348 whole entry): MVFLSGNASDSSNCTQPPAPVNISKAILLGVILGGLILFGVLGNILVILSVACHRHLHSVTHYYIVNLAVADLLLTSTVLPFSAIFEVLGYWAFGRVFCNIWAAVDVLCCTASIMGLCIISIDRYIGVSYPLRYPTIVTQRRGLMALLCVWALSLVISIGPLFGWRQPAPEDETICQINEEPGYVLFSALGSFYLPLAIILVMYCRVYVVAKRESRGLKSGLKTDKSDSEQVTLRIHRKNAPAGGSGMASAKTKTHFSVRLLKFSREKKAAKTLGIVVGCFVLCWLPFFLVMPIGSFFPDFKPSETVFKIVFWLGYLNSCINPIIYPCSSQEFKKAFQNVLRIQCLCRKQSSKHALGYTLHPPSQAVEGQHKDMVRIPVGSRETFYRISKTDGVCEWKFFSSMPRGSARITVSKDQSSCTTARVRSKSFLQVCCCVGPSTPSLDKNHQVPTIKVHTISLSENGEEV

[2] = target: Voltage-gated inwardly rectifying potassium channel KCNH2 (Homo sapiens, UniProt Q12809); assay type: functional; settings: read-out: AC50
Chain of Voltage-gated inwardly rectifying potassium channel KCNH2 (Q12809 whole entry): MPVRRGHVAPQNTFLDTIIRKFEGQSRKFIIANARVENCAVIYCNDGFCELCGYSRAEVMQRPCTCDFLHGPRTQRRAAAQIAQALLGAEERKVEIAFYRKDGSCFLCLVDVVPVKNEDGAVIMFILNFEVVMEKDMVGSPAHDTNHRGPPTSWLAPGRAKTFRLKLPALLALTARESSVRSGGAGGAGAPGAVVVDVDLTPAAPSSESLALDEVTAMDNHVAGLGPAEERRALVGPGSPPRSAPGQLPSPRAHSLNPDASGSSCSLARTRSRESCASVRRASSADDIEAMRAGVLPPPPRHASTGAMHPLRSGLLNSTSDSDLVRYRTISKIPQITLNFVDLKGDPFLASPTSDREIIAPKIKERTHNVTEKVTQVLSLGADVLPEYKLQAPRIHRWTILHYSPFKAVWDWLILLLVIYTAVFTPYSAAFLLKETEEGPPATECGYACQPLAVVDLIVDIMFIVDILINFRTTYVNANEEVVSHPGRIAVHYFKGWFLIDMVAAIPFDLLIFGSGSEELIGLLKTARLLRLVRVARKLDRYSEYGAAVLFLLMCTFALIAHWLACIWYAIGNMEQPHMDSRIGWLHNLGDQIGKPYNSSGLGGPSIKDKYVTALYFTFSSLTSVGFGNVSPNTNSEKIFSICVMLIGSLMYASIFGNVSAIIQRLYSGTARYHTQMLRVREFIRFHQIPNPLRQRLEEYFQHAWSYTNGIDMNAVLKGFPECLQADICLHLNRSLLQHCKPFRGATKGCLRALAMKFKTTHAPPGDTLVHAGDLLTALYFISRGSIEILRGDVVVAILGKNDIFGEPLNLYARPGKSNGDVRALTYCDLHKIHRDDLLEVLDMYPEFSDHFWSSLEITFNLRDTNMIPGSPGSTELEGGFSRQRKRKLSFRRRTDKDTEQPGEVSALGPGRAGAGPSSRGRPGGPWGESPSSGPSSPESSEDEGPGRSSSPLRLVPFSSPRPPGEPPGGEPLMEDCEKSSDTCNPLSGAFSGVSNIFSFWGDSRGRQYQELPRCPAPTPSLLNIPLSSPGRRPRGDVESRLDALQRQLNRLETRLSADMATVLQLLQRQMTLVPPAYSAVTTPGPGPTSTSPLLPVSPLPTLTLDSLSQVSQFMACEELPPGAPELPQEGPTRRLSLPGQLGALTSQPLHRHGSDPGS

Mu-type opioid receptor = Mu-type opioid receptor (Homo sapiens, UniProt P35372)
Chain of Mu-type opioid receptor (P35372 whole entry): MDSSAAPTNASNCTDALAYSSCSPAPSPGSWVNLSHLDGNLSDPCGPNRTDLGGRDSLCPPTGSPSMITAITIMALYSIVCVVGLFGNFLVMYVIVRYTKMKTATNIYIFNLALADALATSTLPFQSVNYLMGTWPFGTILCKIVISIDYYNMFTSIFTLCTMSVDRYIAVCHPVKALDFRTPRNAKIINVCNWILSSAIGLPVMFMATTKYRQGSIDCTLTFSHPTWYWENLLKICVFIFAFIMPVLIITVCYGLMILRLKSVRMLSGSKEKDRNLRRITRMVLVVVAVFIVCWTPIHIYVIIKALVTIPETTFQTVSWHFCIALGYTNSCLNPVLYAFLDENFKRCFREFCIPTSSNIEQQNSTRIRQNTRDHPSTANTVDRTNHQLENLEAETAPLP

Thromboxane A2 receptor [3] = target: T3, Thromboxane A2 receptor (Homo sapiens, UniProt P21731); assay type: functional, cell-based
T3 sequence (P21731 whole entry): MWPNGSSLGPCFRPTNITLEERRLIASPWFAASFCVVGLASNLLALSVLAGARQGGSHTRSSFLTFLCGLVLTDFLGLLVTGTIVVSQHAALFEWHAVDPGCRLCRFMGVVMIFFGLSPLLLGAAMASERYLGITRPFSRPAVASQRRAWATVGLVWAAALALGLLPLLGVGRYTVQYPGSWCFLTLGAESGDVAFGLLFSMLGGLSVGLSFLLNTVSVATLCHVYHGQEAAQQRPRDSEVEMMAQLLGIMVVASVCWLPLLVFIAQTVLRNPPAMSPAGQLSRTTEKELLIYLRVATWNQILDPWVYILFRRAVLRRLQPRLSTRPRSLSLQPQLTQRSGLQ

[4] = target: T4, Amine oxidase [flavin-containing] A (Homo sapiens, UniProt P21397); assay type: functional
T4 sequence (P21397 whole entry): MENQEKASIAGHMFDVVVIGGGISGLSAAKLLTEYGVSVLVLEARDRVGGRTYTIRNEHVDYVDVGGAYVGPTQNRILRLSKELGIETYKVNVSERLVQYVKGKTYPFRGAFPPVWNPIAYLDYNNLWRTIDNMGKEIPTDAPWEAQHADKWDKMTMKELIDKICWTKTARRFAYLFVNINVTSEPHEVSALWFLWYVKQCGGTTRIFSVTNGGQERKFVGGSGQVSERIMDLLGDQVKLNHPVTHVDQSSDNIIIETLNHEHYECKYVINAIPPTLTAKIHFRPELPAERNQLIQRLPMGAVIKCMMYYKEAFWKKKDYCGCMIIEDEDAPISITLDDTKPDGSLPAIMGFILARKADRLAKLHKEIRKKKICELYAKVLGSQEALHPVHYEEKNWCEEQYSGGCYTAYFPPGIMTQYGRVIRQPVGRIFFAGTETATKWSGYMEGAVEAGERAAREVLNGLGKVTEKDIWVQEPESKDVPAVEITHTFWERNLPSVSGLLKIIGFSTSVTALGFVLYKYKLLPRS

Prothrombin = Prothrombin (Homo sapiens, UniProt P00734); assay type: functional
[5] = target: T5, Prostaglandin G/H synthase 1 (Homo sapiens, UniProt P23219); assay type: functional
T5 sequence (P23219 whole entry): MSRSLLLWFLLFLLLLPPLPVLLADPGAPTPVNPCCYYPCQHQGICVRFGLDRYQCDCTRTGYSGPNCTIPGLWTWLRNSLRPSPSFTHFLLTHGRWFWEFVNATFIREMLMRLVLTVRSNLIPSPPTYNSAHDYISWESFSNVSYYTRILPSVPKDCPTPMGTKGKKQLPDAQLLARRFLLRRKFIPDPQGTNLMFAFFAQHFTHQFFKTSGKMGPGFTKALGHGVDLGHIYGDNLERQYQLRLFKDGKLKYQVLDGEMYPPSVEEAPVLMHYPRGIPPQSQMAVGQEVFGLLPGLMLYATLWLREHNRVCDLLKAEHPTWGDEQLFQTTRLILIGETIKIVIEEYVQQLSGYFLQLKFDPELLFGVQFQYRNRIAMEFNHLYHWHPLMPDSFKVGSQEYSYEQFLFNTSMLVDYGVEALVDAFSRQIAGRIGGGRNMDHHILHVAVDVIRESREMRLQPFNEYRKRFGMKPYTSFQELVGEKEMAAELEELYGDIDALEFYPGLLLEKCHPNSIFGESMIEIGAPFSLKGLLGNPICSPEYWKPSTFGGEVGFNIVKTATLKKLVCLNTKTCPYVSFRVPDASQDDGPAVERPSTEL

[6] = target: cGMP-inhibited 3',5'-cyclic phosphodiesterase 3A (Homo sapiens, UniProt Q14432); assay type: functional
Chain of cGMP-inhibited 3',5'-cyclic phosphodiesterase 3A (Q14432 whole entry): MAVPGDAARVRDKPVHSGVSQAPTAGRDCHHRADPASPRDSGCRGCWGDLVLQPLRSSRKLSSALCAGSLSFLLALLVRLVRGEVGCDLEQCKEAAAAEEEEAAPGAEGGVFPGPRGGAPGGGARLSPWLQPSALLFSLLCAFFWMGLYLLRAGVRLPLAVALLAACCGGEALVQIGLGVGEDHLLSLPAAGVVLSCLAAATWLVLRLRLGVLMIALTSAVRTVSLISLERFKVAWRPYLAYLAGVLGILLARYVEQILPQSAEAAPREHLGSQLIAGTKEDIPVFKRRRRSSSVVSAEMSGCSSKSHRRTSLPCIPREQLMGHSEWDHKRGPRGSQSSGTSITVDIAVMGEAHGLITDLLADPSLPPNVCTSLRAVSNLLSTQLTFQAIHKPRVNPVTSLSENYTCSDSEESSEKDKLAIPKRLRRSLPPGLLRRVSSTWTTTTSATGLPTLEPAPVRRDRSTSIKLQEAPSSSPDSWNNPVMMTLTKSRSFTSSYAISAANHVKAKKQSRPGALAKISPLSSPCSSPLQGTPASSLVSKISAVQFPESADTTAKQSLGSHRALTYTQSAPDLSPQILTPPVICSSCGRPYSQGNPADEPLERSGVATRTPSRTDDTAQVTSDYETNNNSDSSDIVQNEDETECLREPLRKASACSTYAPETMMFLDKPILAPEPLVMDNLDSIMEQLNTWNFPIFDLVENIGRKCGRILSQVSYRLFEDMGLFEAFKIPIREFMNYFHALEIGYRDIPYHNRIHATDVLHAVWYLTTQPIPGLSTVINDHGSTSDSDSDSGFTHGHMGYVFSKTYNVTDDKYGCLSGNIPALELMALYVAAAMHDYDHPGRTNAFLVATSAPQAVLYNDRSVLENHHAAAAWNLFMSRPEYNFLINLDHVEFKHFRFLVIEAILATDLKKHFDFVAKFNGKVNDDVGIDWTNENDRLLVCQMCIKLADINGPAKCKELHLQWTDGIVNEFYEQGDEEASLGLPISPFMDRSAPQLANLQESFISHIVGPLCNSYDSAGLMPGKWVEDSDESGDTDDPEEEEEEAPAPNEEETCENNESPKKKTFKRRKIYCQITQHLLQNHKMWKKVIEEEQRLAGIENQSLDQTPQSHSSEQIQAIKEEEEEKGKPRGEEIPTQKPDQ

Acetylcholinesterase = Acetylcholinesterase (Homo sapiens, UniProt P22303); assay type: functional
Chain of Acetylcholinesterase (P22303 whole entry): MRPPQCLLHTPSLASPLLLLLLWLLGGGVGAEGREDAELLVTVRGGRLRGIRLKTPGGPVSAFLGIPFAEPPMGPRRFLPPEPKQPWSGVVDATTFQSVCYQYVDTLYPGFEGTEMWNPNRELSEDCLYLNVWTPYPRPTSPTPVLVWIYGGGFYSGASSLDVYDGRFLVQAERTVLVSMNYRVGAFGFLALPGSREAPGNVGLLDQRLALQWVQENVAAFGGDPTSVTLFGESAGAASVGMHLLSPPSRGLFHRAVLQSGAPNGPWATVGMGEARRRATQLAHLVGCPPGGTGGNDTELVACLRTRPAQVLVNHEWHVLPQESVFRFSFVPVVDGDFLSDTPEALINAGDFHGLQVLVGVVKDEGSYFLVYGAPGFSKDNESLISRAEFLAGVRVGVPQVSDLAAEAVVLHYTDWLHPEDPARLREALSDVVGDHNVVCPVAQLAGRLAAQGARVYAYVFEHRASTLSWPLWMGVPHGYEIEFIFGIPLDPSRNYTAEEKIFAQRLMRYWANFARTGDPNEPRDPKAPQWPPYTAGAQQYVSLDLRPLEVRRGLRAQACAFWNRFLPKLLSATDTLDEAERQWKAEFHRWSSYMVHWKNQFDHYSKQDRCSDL

[7] = target: 5-hydroxytryptamine receptor 2B (Homo sapiens, UniProt P41595); assay type: functional, cell-based
Thromboxane A2 receptor [8] = target: T3, Thromboxane A2 receptor; assay type: functional, cell-based; remark: listed apart in the source
[9] = target: Sodium-dependent dopamine transporter (Homo sapiens, UniProt Q01959)
Chain of Sodium-dependent dopamine transporter (Q01959 whole entry): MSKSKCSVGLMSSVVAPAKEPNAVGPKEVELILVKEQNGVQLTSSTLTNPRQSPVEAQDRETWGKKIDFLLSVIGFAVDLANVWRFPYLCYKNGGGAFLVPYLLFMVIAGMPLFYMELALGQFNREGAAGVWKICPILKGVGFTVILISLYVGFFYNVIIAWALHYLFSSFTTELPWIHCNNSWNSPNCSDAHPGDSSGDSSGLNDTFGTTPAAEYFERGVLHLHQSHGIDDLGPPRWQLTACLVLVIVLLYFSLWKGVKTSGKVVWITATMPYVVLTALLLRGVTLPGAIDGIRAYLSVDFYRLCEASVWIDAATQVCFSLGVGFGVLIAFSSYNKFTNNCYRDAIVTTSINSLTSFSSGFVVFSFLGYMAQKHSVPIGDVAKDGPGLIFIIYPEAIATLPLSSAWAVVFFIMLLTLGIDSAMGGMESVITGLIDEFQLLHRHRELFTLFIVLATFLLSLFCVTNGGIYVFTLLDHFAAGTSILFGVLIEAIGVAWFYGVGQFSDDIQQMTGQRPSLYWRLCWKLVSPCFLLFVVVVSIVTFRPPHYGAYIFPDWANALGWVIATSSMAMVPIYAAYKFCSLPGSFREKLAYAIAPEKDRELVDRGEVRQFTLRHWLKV

[10] = target: T5, Prostaglandin G/H synthase 1; assay type: functional; remark: listed apart in the source
Estrogen receptor = target: T6, Estrogen receptor (Homo sapiens, UniProt P03372)
T6 sequence (P03372 whole entry): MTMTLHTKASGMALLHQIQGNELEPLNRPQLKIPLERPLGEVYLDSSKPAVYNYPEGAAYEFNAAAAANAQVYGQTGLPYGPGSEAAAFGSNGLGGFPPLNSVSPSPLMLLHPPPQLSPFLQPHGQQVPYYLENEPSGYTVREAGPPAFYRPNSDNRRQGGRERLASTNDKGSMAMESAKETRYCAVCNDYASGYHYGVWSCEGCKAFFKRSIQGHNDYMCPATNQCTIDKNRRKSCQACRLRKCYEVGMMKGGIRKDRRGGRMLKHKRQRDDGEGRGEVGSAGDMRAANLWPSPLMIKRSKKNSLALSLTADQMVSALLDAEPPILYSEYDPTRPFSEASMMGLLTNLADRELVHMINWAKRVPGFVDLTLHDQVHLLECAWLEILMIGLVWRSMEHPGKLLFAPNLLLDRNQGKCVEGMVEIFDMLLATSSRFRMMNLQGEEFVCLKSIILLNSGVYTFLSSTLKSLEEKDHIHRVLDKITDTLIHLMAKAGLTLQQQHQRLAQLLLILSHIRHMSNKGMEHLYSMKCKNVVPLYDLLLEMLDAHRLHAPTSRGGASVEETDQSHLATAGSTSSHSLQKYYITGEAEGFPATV
Note: assay procedure not described here.

Chain of D(3) dopamine receptor (P35462 whole entry): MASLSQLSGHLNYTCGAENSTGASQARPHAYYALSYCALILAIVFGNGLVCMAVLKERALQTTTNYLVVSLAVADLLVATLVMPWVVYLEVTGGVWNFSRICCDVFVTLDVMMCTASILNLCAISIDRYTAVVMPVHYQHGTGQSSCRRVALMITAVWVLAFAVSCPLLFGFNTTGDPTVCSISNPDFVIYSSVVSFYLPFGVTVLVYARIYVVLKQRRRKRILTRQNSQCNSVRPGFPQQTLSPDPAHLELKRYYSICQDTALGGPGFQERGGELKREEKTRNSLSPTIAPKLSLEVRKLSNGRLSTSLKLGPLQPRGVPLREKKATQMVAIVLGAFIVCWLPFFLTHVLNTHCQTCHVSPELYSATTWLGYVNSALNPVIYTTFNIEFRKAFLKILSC

Structure (SMILES)	AC50 (D(3) dopamine receptor) [µM]	AC50 (Adenosine receptor A3) [µM]	AC50 [1] [µM]	AC50 [2] [µM]	AC50 (Mu-type opioid receptor) [µM]	AC50 (Thromboxane A2 receptor [3]) [µM]	AC50 [4] [µM]	AC50 (Prothrombin) [µM]	AC50 [5] [µM]	AC50 [6] [µM]	AC50 (Acetylcholinesterase) [µM]	AC50 [7] [µM]	AC50 (Thromboxane A2 receptor [8]) [µM]	AC50 [9] [µM]	AC50 [10] [µM]	AC50 (Estrogen receptor) [µM]
O=C(O)c1cccc(-c2noc(-c3ccccc3F)n2)c1	> 30	> 30	> 30	> 30	> 30	> 30	> 30	> 30	> 30	> 30	> 30	> 30	> 30	> 30	> 30	
Cc1c(O)cccc1C(=O)N[C@@H](CSc1ccccc1)[C@H](O)CN1C[C@H]2CCCC[C@H]2C[C@H]1C(=O)NC(C)(C)C	> 30	2.84	> 30	> 30	15.3	13.2	> 30	> 30	> 30	> 30	> 30	> 30	> 30	23.1	> 30	
CCCC1C(=O)N2C(N(C)C)=Nc3ccc(C)cc3N2C1=O (centres undefined) [APAZONE]	> 30	3.84	> 30	> 30	> 30	> 30	> 30	> 30	6.16	> 30	> 30	> 30	> 30	> 30	8.41	
CCCCN(CCCC)CCCOC(=O)c1ccc(N)cc1 [BUTACAINE]	5.52	> 30	> 30	5.4	> 30	> 30	> 30	> 30	> 30	> 30	> 30	> 30	> 30	2	> 30	
NCc1ccccc1CC(=O)N[C@@H]1C(=O)N2C(C(=O)O)=C(CSc3nnnn3CC(=O)O)CS[C@H]12 [CEFORANIDE]	> 30		> 30		> 30	> 30	> 30	> 30	> 30	> 30	> 30	> 30	> 30	> 30	> 30	> 30
CCOC(=O)CC(SP(=S)(OC)OC)C(=O)OCC (centres undefined) [MALATHION]	> 30		> 30	> 30	> 30	> 30	> 30	> 30	> 30	> 30	> 30	> 30	> 30	> 30	> 30	> 30
